# Source: US6562838B2, “Treatment of cardiovascular disease with quinolinone enantiomers” (R. T. Alamo Ventures I, L.L.C., priority 2001, dated 2003)
# “Also recorded” adds a separate entry of the source.
# Assays:
# [1] = molecular target: T1, PDE1 partially purified from bovine heart (Bos taurus, UniProt P14100); assay: PDE1 enzyme inhibition assay (Example 3); format: biochemical; conditions: 100 μM
# T1 construct: PDE1 partially purified from bovine heart was used; from tissue; host or cells: bovine heart
# Procedure: (§1) In this example, a racemic mixture of flosequinan and the (+) and (−) enantiomers of flosequinan were subjected to biochemical enzyme assays to determine their respective percent inhibition of a variety of phosphodiesterases (PDE1-PDE6). The reaction conditions for each PDE assay were as follows.
# (§2) PDE1 partially purified from bovine heart was used. A racemic mixture of flosequinan, and each enantiomer of flosequinan, all at a molar concentration of 100 μM, were independently incubated with 13 μg PDE1 enzyme, 1.0 μM [^3H]cAMP and CaCl2/calmodulin in Tris buffer pH 7.5 for 20 minutes at 30° C. The reaction was terminated by boiling for 2 minutes, and the resulting AMP was converted to adenosine by addition of 10 mg/ml snake venom nucleotidase and further incubation at 30° C. for 10 minutes. Unhydrolyzed cAMP was bound to AGI-X2 resin, and the remaining [^3H]adenosine in the aqueous phase was quantitated by scintillation counting.
# [2] = molecular target: T2, PDE6 partially purified from bovine retinal rod and activated by trypsin (Bos taurus, UniProt P11541+P23439); assay: PDE6 enzyme inhibition assay (Example 3); format: biochemical; conditions: 100 μM
# T2 construct: from tissue; host or cells: bovine retinal rod
# T2 sequence (P11541 2-856 limits assumed): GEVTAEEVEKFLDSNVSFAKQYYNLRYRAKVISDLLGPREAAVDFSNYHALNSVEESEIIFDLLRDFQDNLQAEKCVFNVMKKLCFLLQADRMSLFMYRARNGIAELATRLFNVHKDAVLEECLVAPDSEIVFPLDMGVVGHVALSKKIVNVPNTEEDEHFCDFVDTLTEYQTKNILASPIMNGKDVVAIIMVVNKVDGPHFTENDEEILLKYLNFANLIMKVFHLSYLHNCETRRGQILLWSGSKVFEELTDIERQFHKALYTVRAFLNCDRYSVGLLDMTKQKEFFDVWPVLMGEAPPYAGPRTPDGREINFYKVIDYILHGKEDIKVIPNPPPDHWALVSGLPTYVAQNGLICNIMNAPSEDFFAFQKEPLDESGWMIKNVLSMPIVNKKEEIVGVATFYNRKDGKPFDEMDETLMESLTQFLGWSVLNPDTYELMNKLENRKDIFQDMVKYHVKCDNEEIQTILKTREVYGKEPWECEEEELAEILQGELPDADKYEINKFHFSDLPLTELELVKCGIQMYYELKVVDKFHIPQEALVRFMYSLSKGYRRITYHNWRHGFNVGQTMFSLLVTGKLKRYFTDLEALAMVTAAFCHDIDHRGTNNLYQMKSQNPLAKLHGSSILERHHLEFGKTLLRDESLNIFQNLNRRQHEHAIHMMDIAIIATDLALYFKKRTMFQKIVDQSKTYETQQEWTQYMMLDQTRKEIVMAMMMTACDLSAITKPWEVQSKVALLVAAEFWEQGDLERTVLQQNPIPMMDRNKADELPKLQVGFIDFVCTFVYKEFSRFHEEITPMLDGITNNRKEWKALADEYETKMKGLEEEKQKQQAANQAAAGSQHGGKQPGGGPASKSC
# T2 sequence (P23439 2-850 limits assumed): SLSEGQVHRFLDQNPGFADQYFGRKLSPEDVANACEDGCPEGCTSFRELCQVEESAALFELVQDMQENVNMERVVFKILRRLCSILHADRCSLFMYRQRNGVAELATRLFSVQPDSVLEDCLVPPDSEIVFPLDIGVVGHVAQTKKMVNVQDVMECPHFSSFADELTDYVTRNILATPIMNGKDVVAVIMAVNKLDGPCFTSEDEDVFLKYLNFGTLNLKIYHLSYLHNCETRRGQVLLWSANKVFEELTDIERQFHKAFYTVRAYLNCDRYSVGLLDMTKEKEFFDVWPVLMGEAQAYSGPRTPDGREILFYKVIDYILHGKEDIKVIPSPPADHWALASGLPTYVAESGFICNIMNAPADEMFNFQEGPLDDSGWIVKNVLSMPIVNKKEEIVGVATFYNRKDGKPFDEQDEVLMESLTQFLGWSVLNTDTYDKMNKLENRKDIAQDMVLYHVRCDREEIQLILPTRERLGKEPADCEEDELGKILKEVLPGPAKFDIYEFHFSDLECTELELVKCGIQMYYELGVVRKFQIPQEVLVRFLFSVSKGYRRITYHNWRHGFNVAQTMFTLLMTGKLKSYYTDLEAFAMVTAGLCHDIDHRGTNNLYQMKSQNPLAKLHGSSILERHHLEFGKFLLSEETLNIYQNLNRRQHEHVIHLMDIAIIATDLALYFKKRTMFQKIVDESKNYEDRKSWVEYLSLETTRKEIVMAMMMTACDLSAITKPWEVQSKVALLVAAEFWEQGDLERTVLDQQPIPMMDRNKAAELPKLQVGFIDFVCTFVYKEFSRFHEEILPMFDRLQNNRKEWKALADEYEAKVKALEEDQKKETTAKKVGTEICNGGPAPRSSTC
# Procedure: as §1
# (§3) PDE6 partially purified from bovine retinal rod and activated by trypsin was used. A racemic mixture of flosequinan, and each enantiomer of flosequinan, all at a molar concentration of 100 μM, were independently incubated with 0.2 μg/ml active PDE6 and 100 μM cGMP containing 0.1 μM [^3H]cGMP in Tris buffer pH 7.5 for 20 minutes at 30° C. Each reaction was terminated by boiling for 2 minutes. The resulting GMP was converted to guanosine by addition of 10 mg/ml snake venom nucleotidase, and further incubated at 30° C. for 10 minutes. Unhydrolyzed cGMP was bound to AGI-X2 resin, and [^3H]guanosine remaining in the aqueous phase was quantitated by scintillation counting.
# [3] = tested on: PDE4 partially purified from human U-937 pronocytic cells; assay: PDE4 enzyme inhibition assay (Example 3); format: biochemical; conditions: 100 μM
# Procedure: as §1
# as §2, with “PDE4” for “PDE1”, “human U-937 pronocytic cells” for “bovine heart”, “20” for “13”, “PDE4 enzyme and 1 μM cAMP containing 0.01” for “PDE1 enzyme, 1.0”, “[^3H]cAMP” for “[^3H]cAMP and CaCl2/calmodulin”
# [4] = molecular target: T3, PDE3 partially purified from human platelets (Homo sapiens, UniProt Q14432); assay: PDE3 enzyme inhibition assay (Example 3); format: biochemical; conditions: for % Inhibition of PDE3: 100 μM
# T3 construct: PDE3 partially purified from human platelets was used; from tissue; host or cells: human platelets
# T3 sequence (Q14432 whole entry): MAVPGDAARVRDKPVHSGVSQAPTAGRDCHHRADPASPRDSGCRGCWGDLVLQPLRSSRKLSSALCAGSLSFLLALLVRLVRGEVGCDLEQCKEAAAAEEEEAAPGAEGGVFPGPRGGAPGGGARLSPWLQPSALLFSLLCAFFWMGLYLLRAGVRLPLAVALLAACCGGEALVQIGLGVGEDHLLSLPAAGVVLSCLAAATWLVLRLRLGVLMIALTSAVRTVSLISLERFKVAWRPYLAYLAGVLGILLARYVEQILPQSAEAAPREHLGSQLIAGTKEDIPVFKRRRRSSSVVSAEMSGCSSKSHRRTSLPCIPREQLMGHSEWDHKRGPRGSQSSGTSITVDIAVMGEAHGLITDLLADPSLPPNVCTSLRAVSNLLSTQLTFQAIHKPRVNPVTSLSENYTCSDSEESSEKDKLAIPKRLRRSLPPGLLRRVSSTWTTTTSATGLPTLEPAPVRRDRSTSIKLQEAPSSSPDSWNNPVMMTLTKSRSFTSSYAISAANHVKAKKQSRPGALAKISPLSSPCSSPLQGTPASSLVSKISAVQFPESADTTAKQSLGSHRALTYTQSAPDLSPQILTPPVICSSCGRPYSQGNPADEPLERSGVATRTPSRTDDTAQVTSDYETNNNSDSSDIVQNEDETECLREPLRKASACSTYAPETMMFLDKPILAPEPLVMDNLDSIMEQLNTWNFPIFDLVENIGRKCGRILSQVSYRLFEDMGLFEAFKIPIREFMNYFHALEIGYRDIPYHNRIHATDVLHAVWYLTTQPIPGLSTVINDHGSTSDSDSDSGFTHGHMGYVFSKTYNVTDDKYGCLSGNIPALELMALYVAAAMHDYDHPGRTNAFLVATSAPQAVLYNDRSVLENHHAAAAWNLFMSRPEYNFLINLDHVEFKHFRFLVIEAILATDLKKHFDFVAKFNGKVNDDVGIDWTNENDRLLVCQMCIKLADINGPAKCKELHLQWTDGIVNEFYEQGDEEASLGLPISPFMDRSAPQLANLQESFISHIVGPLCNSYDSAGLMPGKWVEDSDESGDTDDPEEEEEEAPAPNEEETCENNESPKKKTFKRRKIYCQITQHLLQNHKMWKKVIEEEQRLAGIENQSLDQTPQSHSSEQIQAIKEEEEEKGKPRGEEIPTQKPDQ
# Procedure: as §1
# as §2, with “PDE3” for “PDE1”, “human platelets” for “bovine heart”, “PDE3 enzyme and 1 μM cAMP containing 0.01” for “PDE1 enzyme, 1.0”, “[^3H]cAMP” for “[^3H]cAMP and CaCl2/calmodulin”
# [5] = molecular target: T4, PDE2 partially purified from human platelets (Homo sapiens, UniProt O00408); assay: PDE2 enzyme inhibition assay (Example 3); format: biochemical; conditions: 100 μM
# T4 construct: PDE2 partially purified from human platelets was used; from tissue; host or cells: human platelets
# T4 sequence (O00408 whole entry): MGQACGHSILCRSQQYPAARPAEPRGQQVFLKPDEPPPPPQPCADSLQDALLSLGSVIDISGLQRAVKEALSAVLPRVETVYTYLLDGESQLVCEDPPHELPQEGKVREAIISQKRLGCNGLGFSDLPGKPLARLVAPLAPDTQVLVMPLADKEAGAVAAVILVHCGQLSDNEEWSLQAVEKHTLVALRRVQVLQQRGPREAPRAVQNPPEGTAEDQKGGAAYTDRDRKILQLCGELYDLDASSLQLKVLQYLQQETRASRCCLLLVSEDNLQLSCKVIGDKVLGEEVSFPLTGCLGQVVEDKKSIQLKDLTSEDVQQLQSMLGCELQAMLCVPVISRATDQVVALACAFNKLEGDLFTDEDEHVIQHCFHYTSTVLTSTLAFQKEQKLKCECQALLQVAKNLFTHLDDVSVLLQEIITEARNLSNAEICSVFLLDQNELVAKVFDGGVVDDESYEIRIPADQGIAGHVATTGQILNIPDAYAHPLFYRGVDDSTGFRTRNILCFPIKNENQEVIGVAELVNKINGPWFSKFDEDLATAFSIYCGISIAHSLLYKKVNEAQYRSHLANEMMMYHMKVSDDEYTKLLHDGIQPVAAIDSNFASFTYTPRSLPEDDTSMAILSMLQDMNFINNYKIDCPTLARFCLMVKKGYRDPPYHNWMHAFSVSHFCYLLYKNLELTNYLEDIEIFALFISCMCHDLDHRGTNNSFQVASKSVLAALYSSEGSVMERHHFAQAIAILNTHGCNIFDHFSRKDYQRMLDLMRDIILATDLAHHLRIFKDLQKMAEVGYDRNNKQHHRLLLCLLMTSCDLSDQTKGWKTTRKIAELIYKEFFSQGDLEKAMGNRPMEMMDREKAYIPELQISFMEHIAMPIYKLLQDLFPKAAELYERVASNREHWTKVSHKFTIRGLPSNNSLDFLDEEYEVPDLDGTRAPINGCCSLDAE
# Procedure: as §1
# as §2, with “PDE2” for “PDE1”, “human platelets” for “bovine heart”, “23” for “13”, “25 μM cAMP containing 0.05” for “1.0”, “[^3H]cAMP” for “[^3H]cAMP and CaCl2/calmodulin”
# [6] = molecular target: T5, PDE5 partially purified from human platelets (Homo sapiens, UniProt O76074); assay: PDE5 enzyme inhibition assay (Example 3); format: biochemical; conditions: 100 μM
# T5 construct: PDE5 partially purified from human platelets was used; from tissue; host or cells: human platelets
# Procedure: as §1
# PDE5 partially purified from human platelets was used. A racemic mixture of flosequinan, and each enantiomer of flosequinan, all at a molar concentration of 100 μM, were independently incubated with 120 μg PDE5 enzyme and 1 μM cGMP containing 0.01 μM [^3H]cGMP in Tris buffer pH 7.5 for 20 minutes at 30° C. The reaction was terminated by boiling for 2 minutes, and the resulting GMP was converted to guanosine by addition of 10 mg/ml snake venom nucleotidase and further incubation at 30° C. for 10 minutes. Unhydrolyzed cGMP was bound to AGI-X2 resin, and the remaining [^3H]guanosine in the aqueous phase was quantitated by scintillation counting.
# [7] = molecular target: T2, PDE6 partially purified from bovine retinal rod and activated by trypsin; assay: PDE6 inhibition assay, Viagra vs racemic flosequinan (Example 1); format: biochemical
# Procedure: as §3, with “used. In four separate reactions, Viagra at molar concentrations of 0.3 μM, 1.0 μM, and 3.0 μM, and a 100 μM” for “used. A”, “of flosequinan” for “of flosequinan, and each enantiomer of flosequinan, all at a molar concentration of 100 μM,”, “were” for “were independently”, “by raising the temperature to 100° C.” for “by boiling”, “venom nucleotidase” for “venom nucleotidase,”
# [8] = Solubility; format: physicochemical
# Text: Thus, while the present invention is not limited by the form of oral administration, aqueous and organic solution of an enantiomer of flosequinan for oral administration is contemplated. Likewise, an enantiomer of flosequinan can be associated with a solid pharmaceutical carrier for solid oral administration (i.e., in pill form).
# [9] = tested on: phosphodiesterase III (PDE3); conditions: Gristwood et al. 1992; Frodsham et al. 1992; cited from earlier work
smiles,measurement,setting,value
Cn1cc([S+](C)[O-])c(=O)c2ccc(F)cc21 (stereo not drawn) [(−)−flosequinan],% Inhibition of PDE1,[1],11%
same,% Inhibition of PDE6,[2],21%
same,% Inhibition of PDE4,[3],1%
same,% Inhibition of PDE3,[4],5%
same,% Inhibition of PDE2,[5],13%
same,% Inhibition of PDE5,[6],10%
"Cn1cc([S+](C)[O-])c(=O)c2ccc(F)cc21 (racemic) [Flosequinan, 7-fluoro-1-methyl-3-(methylsulphinyl)-4(1H)-quinolone]",% Inhibition of PDE4,[3],24%
same,inhibition of PDE6 compared to sildenafil citrate,[7]; 100 μM vs sildenafil citrate 1 μM (100-fold lower molar concentration),approximately half as much inhibition of PDE6
same,times more compound on a molar basis than Viagra for around 50% PDE6 inhibition,[7]; vs Viagra 0.3 μM,more than 300 times
same,solubility in organic solvents,[8]; organic solvents,soluble in many organic solvents
same,solubility in water,[8]; water,water soluble
same,reported phosphodiesterase selectivity,[9],selective inhibitor of phosphodiesterase III (PDE3)
"Cn1cc(C(N)=O)c(=O)c2sccc21 [Example 4 b, 4-methyl-7-oxo-4,7-dihydrothieno[3,2-b]pyridine-6-carboxamide]",melting point,,255 to 258 °C
"Cn1cc(C(N)=O)c(=O)c2ccc(Cl)cc21 [Example 4 e, 7-chloro-1-methyl-4-oxo-1,4-dihydroquinoline-3-carboxamide]",melting point,,> 240 °C
Cn1cc([S@@+](C)[O-])c(=O)c2ccc(F)cc21 [(+)−flosequinan],% Inhibition of PDE1,[1],28%
same,PDE1 inhibitory activity compared with the (−) enantiomer of flosequinan,[1],more PDE1 and PDE3 inhibitory activity
same,% Inhibition of PDE6,[2],22%
same,% Inhibition of PDE4,[3],6%
same,% Inhibition of PDE3,[4],32%
same,PDE3 inhibition compared to racemic mixture of flosequinan,[4]; same molar concentration,greater inhibition of PDE3
same,PDE3 inhibition compared to the (−) enantiomer of flosequinan,"[4]; same molar concentration, listed as (+) enantiomer of flosequinan",more PDE1 and PDE3 inhibitory activity; also recorded: eight-fold increase
same,% Inhibition of PDE2,[5],18%
same,% Inhibition of PDE5,[6],17%
